# Source: patent publication US20120029177A1, “HETEROCYCLE-AMINO ACID DERIVATIVES FOR TARGETING CANCER TISSUE AND RADIOACTIVE OR NON-RADIOACTIVE LABELED COMPOUNDS THEREOF” (SNU R&DB FOUNDATION, priority 2009, published 2012)
# Test system: SNU-C4 xenografted nude mice
# Assay: Biodistribution study in SNU-C4 xenografted nude mice after intravenous injection
# Assay type: in vivo, mouse
# Details: for % ID/g Tumor: SNU-C4 tumor
# Method: Human colon cancer cell line SNU-C4 was cultured in RPMI1640 media containing 10% fetal bovine serum and harvested using trypsin. The cells were washed using 10 mL PBS and centrifugation at 3,000 rpm. Each nude mouse was injected with 2×10^5 cells/0.1 mL on the right shoulder subcutaneously. On 13 days post-injection, each 10 μCi/0.1 mL of ^68Ga labeled agent was injected into the xenografted mice through the tail vein. The injected mice were sacrificed at 10 min, 30 min, 1 hr, and 2 hr, cancer, blood, muscle, heart, liver, spleen, stomach, intestine, and bone were obtained, weighed, and their radioactivities were counted. The results were expressed as percentages of injected dose per gram tissue (% ID/g).
# [1] = 10 min after intravenous injection
# [2] = 30 min after intravenous injection
# [3] = 1 hr after intravenous injection
# [4] = 2 hr after intravenous injection
smiles,measurement,setting,value
"O=C([O-])CN1CCNCCN(CC(=O)[O-])CCNCC1.[68Ga+3] [^68Ga-DO2A, reference compound]",% ID/g Tumor,[1],2.71 ± 0.51 % ID/g
same,% ID/g Tumor,[2],2.10 ± 0.23 % ID/g
same,% ID/g Tumor,[3],0.99 ± 0.10 % ID/g
same,% ID/g Tumor,[4],0.67 ± 0.12 % ID/g
same,% ID/g Blood,[1],7.82 ± 1.05 % ID/g
same,% ID/g Blood,[2],3.61 ± 0.74 % ID/g
same,% ID/g Blood,[3],1.12 ± 0.27 % ID/g
same,% ID/g Blood,[4],0.44 ± 0.06 % ID/g
same,% ID/g Bone,[1],2.56 ± 0.61 % ID/g
same,% ID/g Bone,[2],1.54 ± 0.53 % ID/g
same,% ID/g Bone,[3],0.72 ± 0.23 % ID/g
same,% ID/g Bone,[4],0.58 ± 0.19 % ID/g
same,% ID/g Heart,[1],2.33 ± 0.32 % ID/g
same,% ID/g Heart,[2],0.97 ± 0.20 % ID/g
same,% ID/g Heart,[3],0.37 ± 0.10 % ID/g
same,% ID/g Heart,[4],0.23 ± 0.03 % ID/g
same,% ID/g Intestine,[1],2.24 ± 0.36 % ID/g
same,% ID/g Intestine,[2],1.27 ± 0.25 % ID/g
same,% ID/g Intestine,[3],0.68 ± 0.11 % ID/g
same,% ID/g Intestine,[4],0.62 ± 0.07 % ID/g
same,% ID/g Kidney,[1],32.32 ± 21.63 % ID/g
same,% ID/g Kidney,[2],13.61 ± 3.98 % ID/g
same,% ID/g Kidney,[3],8.46 ± 2.11 % ID/g
same,% ID/g Kidney,[4],6.90 ± 1.10 % ID/g
same,% ID/g Liver,[1],2.91 ± 0.31 % ID/g
same,% ID/g Liver,[2],2.75 ± 0.49 % ID/g
same,% ID/g Liver,[3],2.31 ± 0.27 % ID/g
same,% ID/g Liver,[4],2.17 ± 0.20 % ID/g
same,% ID/g Lung,[1],6.96 ± 1.06 % ID/g
same,% ID/g Lung,[2],3.57 ± 0.80 % ID/g
same,% ID/g Lung,[3],1.32 ± 0.35 % ID/g
same,% ID/g Lung,[4],0.87 ± 0.25 % ID/g
same,% ID/g Muscle,[1],2.81 ± 0.82 % ID/g
same,% ID/g Muscle,[2],1.45 ± 0.42 % ID/g
same,% ID/g Muscle,[3],0.45 ± 0.17 % ID/g
same,% ID/g Muscle,[4],0.13 ± 0.07 % ID/g
same,% ID/g Spleen,[1],1.86 ± 0.24 % ID/g
same,% ID/g Spleen,[2],1.03 ± 0.22 % ID/g
same,% ID/g Spleen,[3],0.47 ± 0.10 % ID/g
same,% ID/g Spleen,[4],0.38 ± 0.08 % ID/g
same,% ID/g Stomach,[1],2.52 ± 0.46 % ID/g
same,% ID/g Stomach,[2],1.22 ± 0.32 % ID/g
same,% ID/g Stomach,[3],0.38 ± 0.05 % ID/g
same,% ID/g Stomach,[4],0.18 ± 0.03 % ID/g
"O=C([O-])CN1CCNCCN(CC(=O)[O-])CCN(CC(=O)[O-])CC1.[68Ga+3] [^68Ga-DO3A, reference compound]",% ID/g Tumor,[1],3.14 ± 0.73 % ID/g
same,% ID/g Tumor,[2],1.83 ± 0.20 % ID/g
same,% ID/g Tumor,[3],0.93 ± 0.33 % ID/g
same,% ID/g Tumor,[4],0.54 ± 0.04 % ID/g
same,% ID/g Blood,[1],6.96 ± 0.18 % ID/g
same,% ID/g Blood,[2],3.21 ± 0.58 % ID/g
same,% ID/g Blood,[3],1.03 ± 0.34 % ID/g
same,% ID/g Blood,[4],0.22 ± 0.02 % ID/g
same,% ID/g Bone,[1],1.64 ± 0.48 % ID/g
same,% ID/g Bone,[2],0.97 ± 0.28 % ID/g
same,% ID/g Bone,[3],0.38 ± 0.12 % ID/g
same,% ID/g Bone,[4],0.28 ± 0.33 % ID/g
same,% ID/g Heart,[1],1.75 ± 0.12 % ID/g
same,% ID/g Heart,[2],0.77 ± 0.11 % ID/g
same,% ID/g Heart,[3],0.32 ± 0.09 % ID/g
same,% ID/g Heart,[4],0.06 ± 0.09 % ID/g
same,% ID/g Intestine,[1],1.87 ± 0.06 % ID/g
same,% ID/g Intestine,[2],1.00 ± 0.14 % ID/g
same,% ID/g Intestine,[3],0.64 ± 0.17 % ID/g
same,% ID/g Intestine,[4],0.42 ± 0.08 % ID/g
same,% ID/g Kidney,[1],11.96 ± 0.51 % ID/g
same,% ID/g Kidney,[2],7.85 ± 1.00 % ID/g
same,% ID/g Kidney,[3],6.52 ± 3.13 % ID/g
same,% ID/g Kidney,[4],7.50 ± 3.82 % ID/g
same,% ID/g Liver,[1],1.99 ± 0.03 % ID/g
same,% ID/g Liver,[2],1.35 ± 0.13 % ID/g
same,% ID/g Liver,[3],1.02 ± 0.16 % ID/g
same,% ID/g Liver,[4],0.93 ± 0.05 % ID/g
same,% ID/g Lung,[1],5.81 ± 0.54 % ID/g
same,% ID/g Lung,[2],2.82 ± 0.59 % ID/g
same,% ID/g Lung,[3],1.26 ± 0.28 % ID/g
same,% ID/g Lung,[4],0.61 ± 0.23 % ID/g
same,% ID/g Muscle,[1],1.69 ± 0.39 % ID/g
same,% ID/g Muscle,[2],0.92 ± 0.27 % ID/g
same,% ID/g Muscle,[3],0.32 ± 0.17 % ID/g
same,% ID/g Muscle,[4],0.10 ± 0.03 % ID/g
same,% ID/g Spleen,[1],1.63 ± 0.08 % ID/g
same,% ID/g Spleen,[2],0.95 ± 0.14 % ID/g
same,% ID/g Spleen,[3],0.64 ± 0.09 % ID/g
same,% ID/g Spleen,[4],0.53 ± 0.11 % ID/g
same,% ID/g Stomach,[1],2.37 ± 0.56 % ID/g
same,% ID/g Stomach,[2],1.00 ± 0.24 % ID/g
same,% ID/g Stomach,[3],0.43 ± 0.20 % ID/g
same,% ID/g Stomach,[4],0.16 ± 0.05 % ID/g
